This is an account of results in patent US12690589B2, “Herbicidal compositions comprising pyroxasulfone” (BASF SE, priority 2024, dated 2026).

What all share (test): Post-emergence application in field trials, herbicidal activity (damage scale 0 to 100%)
Holding throughout (format): in vivo

Assay [1] relates to Spermacoce latifolia (BOILF). The following applies: 21 DAT, Table 2.5. On the procedure:
(§1) In the examples below, using the method of S. R. Colby (1967) “Calculating synergistic and antagonistic responses of herbicide combinations”, Weeds 15, p. 22ff., the value E, which is expected if the activity of the individual active compounds is only additive, was calculated:
(§2) [formula] • wherein • X=percent activity using active herbicide A at an application rate a; • Y=percent activity using active herbicide B (e.g. pyroxasulfone) at an application rate b; • E=expected activity (in %) by A+B at application rates a+b.
(§3) If the value found experimentally is higher than the value E calculated according to Colby, a synergistic effect is present.
(§4) On field test sites, natural weed infestation or seeded weeds were treated post-emergence of the weeds.
(§5) In the field trials, the weeds were treated as indicated below.
(§6) In the following experiments, the herbicidal activity for the individual herbicidal compositions (solo and mixture applications) was assessed at the indicated days after treatment (DAT). The assessments for the damage on undesired weeds caused by the composition was carried out using a scale from 0 to 100%, compared to the untreated control plants. Here, 0 means no damage and 100 means complete destruction of the plants.
(§7) Herbicide A-1 (50 g/l) and pyroxasulfone (85% WG) were, together with addition of 0.5% MSO (methylated seed oil) as adjuvant, formulated in water as distribution medium (water volume 200 l/ha) and sprayed with commercial flat fan nozzles.

Assay [2] relates to Amaranthus viridis (AMAVI). The following applies: growth stage 16-18, height 10-15 cm, 20 DAT, Table 2.1. The method, then: as §1, §2, §3, §4, §5, §6, §7
In assay [3] the test system is Galinsoga parviflora (GASPA). The following applies: height 15-35 cm, 21 DAT, Table 2.4. On the procedure:
as §1, §2, §3, §4, §5, §6, §7

In assay [4] the test system is Bidens pilosa (BIDPI). The method, then:
as §1, §2, §3, §4, §5, §6, §7

For assay [5], the system named is Ipomoea triloba (IPOTR). As to conditions: height 20-25 cm, 21 DAT, Table 2.2. The method, then: as §1, §2, §3, §4, §5, §6, §7
In assay [6] the test system is Portulaca oleracea (POROL). The following applies: growth stage 14-16, height 5-10 cm, 20 DAT, Table 2.1. On the procedure: as §1, §2, §3, §4, §5, §6, §7
The test system of assay [7] is Euphorbia heterophylla (EPHHL). The following applies: 21 DAT. On the procedure: as §1, §2, §3, §4, §5, §6, §7
Assay [8] relates to Commelina benghalensis (COMBE). The following applies: 21 DAT. The method, then: as §1, §2, §3, §4, §5, §6, §7
[9] abbreviates: height 20-25 cm, A-1 25 g ai/ha, Table 2.2.
Where [10] appears, read: height 20-25 cm, B 120 g ai/ha, Table 2.2.

With `CCOC(=O)COc1ccccc1Oc1nc(-n2c(=O)cc(C(F)(F)F)n(C)c2=O)c(F)cc1Cl` [A-1, ethyl 2-[2-[[3-chloro-5-fluoro-6-[3-methyl-2,6-dioxo-4-(trifluoromethyl)pyrimidin-1-yl]-2-pyridyl]oxy]phenoxy]acetate], the “% Herbicidal activity” value is 94% in assay [1] (A-1 25 g ai/ha); 97% in assay [1] (A-1 50 g ai/ha); 71% in assay [2] (A-1 25 g ai/ha); 83% in assay [2] (A-1 50 g ai/ha); 82% in assay [3] (A-1 25 g ai/ha); 94% in assay [3] (A-1 50 g ai/ha). For the same compound, the “% Herbicidal activity” value came to 94% in assay [4] (growth stage 12-16, height 5-10 cm, A-1 25 g ai/ha, 21 DAT, Table 2.6); 71% in assay [4] (growth stage 23-25, height 10-20 cm, A-1 25 g ai/ha, 20 DAT, Table 2.1); 77% in assay [4] (growth stage 23-25, height 10-20 cm, A-1 50 g ai/ha, 20 DAT, Table 2.1); 92% in assay [4] (height 20-45 cm, A-1 50 g ai/ha, 21 DAT, Table 2.4); 88% in assay [5] (A-1 25 g ai/ha); 60% in assay [6] (A-1 50 g ai/ha). Moreover, the “% Herbicidal activity” value amounted to 97% in assay [7] (growth stage 12-16, height 5-15 cm, A-1 25 g ai/ha, Table 2.6); 98% in assay [7] (growth stage 12-16, height 5-15 cm, A-1 50 g ai/ha, Table 2.6); 95% in assay [7] (height 15-35 cm, A-1 50 g ai/ha, Table 2.4); 86% in assay [7] (setting [9]); 94% in assay [8] (growth stage 11-14, height 2-10 cm, A-1 50 g ai/ha, Table 2.6); 42% in assay [8] (setting [9]).

Consider `Cn1nc(C(F)(F)F)c(CS(=O)(=O)C2=NOC(C)(C)C2)c1OC(F)F` [B, pyroxasulfone], for which the “% Herbicidal activity” value in assay [1] (B 120 g ai/ha) is on record as 5%; in assay [2] (B 120 g ai/ha), 0%; in assay [3] (B 120 g ai/ha), 0%; in assay [4] (growth stage 12-16, height 5-10 cm, B 120 g ai/ha, 21 DAT, Table 2.6) it was 5%; in assay [4] (growth stage 23-25, height 10-20 cm, B 120 g ai/ha, 20 DAT, Table 2.1), 0%; in assay [4] (height 20-45 cm, B 120 g ai/ha, 21 DAT, Table 2.4) it was 0%. Also, the “% Herbicidal activity” value came to 0% in assay [5] (B 120 g ai/ha); 0% in assay [6] (B 120 g ai/ha); 5% in assay [7] (growth stage 12-16, height 5-15 cm, B 120 g ai/ha, Table 2.6); 0% in assay [7] (height 15-35 cm, B 120 g ai/ha, Table 2.4); 0% in assay [7] (setting [10]); 10% in assay [8] (growth stage 11-14, height 2-10 cm, B 120 g ai/ha, Table 2.6). Also, the “% Herbicidal activity” value in assay [8] (setting [10]) is recorded as 0%.
